# Measurements as given in PMC4467461, “Small-molecule activation of SERCA2a SUMOylation for the treatment of heart failure” (Nature Communications, 2015).
# How the values were obtained:
# [1] = tested on: HEK-293 cells co-transfected with SERCA2a and SAE1 mutants (Q312A and V315F); test: N106-induced SERCA2a SUMOylation in HEK-293 cells overexpressing SAE1 mutants; type: cell-based
# Method: Supplementary Figure 4. Effects of overexpressing SAE1 mutants on N106-induced SERCA2a SUMOylation. (a) HEK-293 cells were co-transfected with SERCA2a and SAE1 wild type or SAE1 mutants (Q312A and V315F) for 24 hours. And then the transfecting HEK-293 cells were incubated with different concentration of N106 for 24 hours. The level of SERCA2a SUMOylation was determined by immunoprecipitation and following with Western blotting. (b) The levels of SAE1 overexpression were determined by Western blotting with anti- […]
# (1 picture or pasted object on this page, not shown here)
# [2] = tested on: mouse heart tissue (sham and TAC); test: Molecular analysis of heart tissue of N106-infused mice (western blot, immunoprecipitation, ATPase activity); type: in vivo
# Method: Protein extracts (20∼50 μg) were obtained from isolated cardiomyocytes, which was lysed in RIPA buffer (R&D Systems Inc., MN, USA) contained protease inhibitors (Complete mini, Roche Diagnostics, IN, USA) and 20 mM NEM (Sigma-Aldrich). For SERCA2a SUMOylation assays, cardiac protein extracts were immunoprecipitated with a SUMO-1 agarose resin (Santa Cruz Biotechnology Inc., CA, USA) for overnight at 4 °C. The resins were washed with cold lysis buffer three times. The immunocomplexes were then resolved by SDS–PAGE and western blot analysis was performed using a SERCA2a-specific antibody. For general western blotting, cardiac proteins (10∼50 μg) were separated on SDS–PAGE gel, transferred to nitrocellulose membrane (Bio-Rad, CA, USA) and blotted with the following primary antibodies: SUMO-1 (1:1,000, R&D Systems Inc.), Ubc9 (1:1,000, R&D Systems Inc.), SAE2 (1:1,000, Abcam Inc., MA, USA), SERCA2a (1:3,000, 21st Century Biochemicals, MA, USA), PLN (1:5,000, Badrilla Ltd., UK), PLN phosphorylation at serine-16 (1:5,000, Badrilla Ltd.), RyR2 (1:5,000, Abcam Inc.), NCX (1:1,000, Novus Biologicals, CO, USA), glyceraldehyde 3-phosphate (1:10,000, Sigma-Aldrich), GATA4 (1:1,000, Millipore, NY, USA) and Sp1 (1:500, Millipore). Secondary antibodies anti-mouse IgG-HRP (1:10,000) and anti-rabbit IgG-HRP (1:10,000) were purchased from Sigma-Aldrich. The immunoreactive bands were visualized by a supersignal chemiluminescence detection reagent (Pierce Biotechnology, IL, USA). Full scans of western blots are presented in Supplementary Fig. 14.
# SERCA2a ATPase activity was determined using a coupled enzymes assay including pyruvate kinase/lactate dehydrogenase/NADH-coupled reactions. Microsomes were enriched by differential density centrifugation. The cardiac cells and tissues were homogenized on ice in homogenization buffer (250 mM sucrose (Sigma-Aldrich), 5 mM HEPES pH7.0 (Sigma-Aldrich), 1 mM phenylmethyl sulfonyl fluoride (Sigma-Aldrich), protease inhibitor cocktail (Roche Life Science, IN, USA)). The homogenates were centrifuged at 1,000g for 10 min at 4 °C, then the supernatants were collected and centrifuged at 12,000g for 15 min at 4 °C. The supernatants were transferred to ultracentrifuge tubes and centrifuged for 1 h at 140,000g at 4 °C (Optima XE-100, Beckman Coulter). The pellets were resuspended in homogenization buffer to determine protein concentration and calcium-dependent ATPase activity assay. Protein concentration was measured with a 2-D Quant Kit (GE Healthcare Life Sciences, PA, USA). The ATPase activity were measured at 25 °C in 50 mM MOPS (Boston Bioproducts, MA, USA), 100 mM KCl (Boston Bioproducts), 5 mM MgCl2 (Boston Bioproducts), 1 mM EDTA (Boston Bioproducts) at pCa 5.0 by using a coupled enzyme system consisting of pyruvate kinase and lactate dehydrogenase, and monitoring the oxidation of the reduced form of NADH at […].
# Supplementary Figure 9. Molecular analysis in N106 treated mice. (a-d) Representative western blots and protein quantification of select cardiac proteins. Mice heart tissue samples were obtained after external jugular vein infusion with vehicle or 10 mg.kg-1of N106 from sham and TAC mice. The experiments shown are representative of three independent Western blots with […]
# (also on this page, place not known: TACSham TACSham TACSham SUMO-1 Conjugates (relative fold) N106Vehicle TACSham Veh RyR2/GAPDH (relative fold)Vehicle N106Vehicle Veh TACSham Veh 0.5 NCX/GAPDH (relative fold) NSNS N106Vehicle N106Vehicle N106Vehicle 200ATPase activity (% of control)Vehicle N106Vehicle TAC PLN/GAPDH (relative fold) P-PLN/PLN (relative fold) MW) […]
# similar results. (e) The enzyme activity of SERCA2a was determined by using the same set of heart tissue samples. (f) SUMO-1 conjugate was measured by Western blot analysis with an anti-SUMO-1 antibody. Band intensity was quantified by Image J software. The amount of GAPDH was used as a normalization control. […]
compound,measurement,setting,value
"COc1ccc(-c2nnc(Nc3nc4c(OC)cccc4s3)o2)cc1 [Compound N106, N-(4-methoxybenzo[d]thiazol-2-yl)-5-(4-methoxyphenyl)-1,3,4-oxadiazol-2-amine]",N106-induced increase in SUMOylation of SERCA2a in mutant SAE1-overexpressing cells versus overexpressed WT,[1]; 24 h,weaker
same,Dose-dependent increases in SERCA2a SUMOylation in cells overexpressing mutants,"[1]; different concentration of N106, 24 h",not observed
same,GATA4 SUMOylation and its protein levels,[2]; 10 mg kg^−1,no significant effect
same,protein levels of Sp1,[2]; 10 mg kg^−1,not changed
same,SERCA2a protein levels,[2]; 10 mg kg^−1 infusion,not significantly changed
same,protein levels and phosphorylation states of phospholamban,[2]; 10 mg kg^−1 infusion,Neither protein levels nor phosphorylation states of phospholamban were changed
same,protein levels of cardiac ryanodine receptor and sodium–calcium exchanger,[2]; 10 mg kg^−1 infusion,not significant changes
same,whole SUMO-1 conjugates,[2]; 10 mg kg^−1 infusion,not significantly changed
same,SUMOylated specificity protein 1 (Sp1) form,"[2]; TAC heart, 10 mg kg^−1",significantly induced
same,SUMOylation of SERCA2a versus vehicle control,"[2]; TAC hearts, 10 mg kg^−1",significantly increased
same,SERCA2a’s ATPase activity versus vehicle-treated hearts,"[2]; TAC hearts, 10 mg kg^−1 (P=0.06)",somewhat higher
same,SUMOylation of SERCA2a versus vehicle control,"[2]; sham-operated group, 10 mg kg^−1 (P=0.07)",increasing trend
